Experiment [1] has as its system SK-CO-1 (Mut) colon tumor cells. The experiment in a line: CyQUANT proliferation assay. It is filed as cell-based. The settings on record: Homo sapiens. Here is the method:
(§1) Madine Darby Canine Kidney epithelial cells (MDCK) stably co-expressing mGFP-tagged full length oncogenic mutant K-Ras (GFP—K-RASG12V) or mGFP-LactC2 (peptide probe for phosphatidylserine) and mCherry-tagged to the amino acids 179-189 of H-RasC181S, C184S (mCherry-CAAX, localizes primarily to endomembranes) were grown in DMEM-high glucose/sodium pyruvate/10% FBS. The medium was supplemented with 1× Penicillin/Streptomycin for fluorescence microscopy assays, to avoid any microbial contamination from the test compounds added. KLE and Hec50 cells were maintained in DMEM-F-12 medium supplemented with 10% FBS. Hec-1A and Hec-1B cells were grown in McCoy's 5a medium supplemented with 10% FBS. ESS-1 cells were grown in RPMI 1640 medium supplemented with 20% FBS. MPanc96 cells were grown in DMEM supplemented with 10% FBS, MiaPaCa-2 cells in DMEM supplemented with 10% FBS and 2.5% horse serum and all other cell lines were grown in RPMI 1640 supplemented with 10% FBS. All cancer cell media were supplemented with ×Penicillin/Streptomycin. All cell lines were grown at 37° C. with 5% CO2.
(§2) Cells were seeded in 96-well plates. After 24 h, fresh growth medium supplemented with 0.1% vehicle (DMSO), or various concentrations of drugs was added and cells were grown for 72 h. Cell numbers were quantified using the CyQUANT® Cell Proliferation Assay Kit (Molecular Probes, Life Technologies), according to the manufacturer's protocol. Fluorescence measurement was used as a measure of live cell number.

In experiment [2] the test system is Hec1A (Mut) endometrial tumor cells. The experiment in a line: CyQUANT proliferation assay. It is filed as cell-based. The settings on record: Homo sapiens, HEC-1-A. On the procedure: as §1, §2
Experiment [3] deals with Hec1B (Mut) endometrial tumor cells. The experiment is described as follows: CyQUANT proliferation assay. In kind it is cell-based. The settings on record: Homo sapiens, HEC-1B. On the procedure:
as §1, §2

In experiment [4] the test system is CaCO-2 (WT) colon tumor cells. The experiment in a line: CyQUANT proliferation assay. In kind it is cell-based. The settings on record: Homo sapiens. Here is the method:
as §1, §2

The subject of experiment [5] is NCI-H1299 (WT) lung tumor cells. The experiment is described as follows: CyQUANT proliferation assay. It is filed as cell-based. The settings on record: Homo sapiens. Here is the method: as §1, §2
In experiment [6] the test system is MPanc96 (Mut) pancreatic tumor cells. The experiment in a line: CyQUANT proliferation assay. In kind it is cell-based. On the procedure:
as §1, §2

In experiment [7] the test system is MOH (Mut) pancreatic tumor cells. The experiment in a line: CyQUANT proliferation assay. It is filed as cell-based. On the procedure:
as §1, §2

Experiment [8] deals with NCI-H23 (Mut) lung tumor cells. The experiment in a line: CyQUANT proliferation assay. It is filed as cell-based. The settings on record: Homo sapiens. Here is the method:
as §1, §2

For a further experiment, the system named is pERK. The experiment in a line: Immunohistochemistry of tumor sections, pERK. Details: species or system nu/nu mice. The settings on record: mouse, in vivo. Here is the method:
Immunohistochemistry. 4-5 μm sections were deparaffinized, rehydrated, and treated with 10 mM sodium citrate for heat induced antigen retrieval. After quenching endogenous peroxidase, and blocking with 2.5% normal goat serum (Vector Laboratories S-1012), sections were incubated overnight at 4° C. with primary antibody diluted in blocking solution as recommended by manufacturer (Cell Signaling). Controls were incubated with diluted normal rabbit IgG. After incubation with biotinylated secondary antibody diluted 1:250 in blocking serum for 45 min at rt, sections were incubated with VECTASTAIN ABC reagent for 30 min, and for development of the DAB chromogen the Quanto substrate was used. Slides were counter stained with Hematoxylin. Five fields per stained section per xenograft were photographed at 10X. CC3+ and pERK+ area and number of events per field were quantitated via automated image analysis (NIS Elements BR analysis ver. 4.13.04). Vessel number and lumen area per field used the same software with manual settings to trace vessel wall contours. Antibodies used are as follows: CC3: Cell Signaling #9661, use at 1:300. (Cleaved Caspase-3 (Asp175) Antibody. Rabbit polyclonal. pERK: Cell Signaling #4370: Phospho-p44/42 MAPK (Erk1/2) (Thr202/Tyr204) (D13.14.4E) XP Rabbit mAB. CD31 (PECAM-1) (D8V9E) XP Rabbit mAB (Cell signal # (Cell signal #77699). Normal rabbit IgG: Santa Cruz #sc-3888. Concentration is 50 μg/mL or 50 ng/μL. Prepared with 5 μg in 200 μL blocking solution. Goat Anti-Rabbit IgG Biotin Conjugate: Calbiochem #OS03B, Concentration=1.2 mg/mL. Recommended to be used for IHC at 1 μg/mL.

The target in the next experiment is mGFP-K-RASG12V (Homo sapiens (Human), UniProt P01116, G12V). The experiment in a line: K-Ras mislocalization assay (confocal microscopy, Manders coefficient). It is filed as cell-based. Details: key to Emax: Manders coefficient: fraction of mCherry-CAAX co-localizing with GFP-K-Ras. The settings on record: for IC50 / Emax: MDCK cells; for Emax: maximal effect, Manders coefficient. An outline of the steps:
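MDCK cells stably co-expressing mGFP-K-RASG12V and mCherry-CAAX (endomembrane marker) treated with compound or 0.1% DMSO for 48 h, fixed in 4% paraformaldehyde, imaged by confocal microscopy. Mislocalization quantified as the fraction of mCherry-CAAX co-localizing with mGFP-K-RASG12V (Manders coefficient) after 8-bit thresholding.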

Setting [9] is: SK-CO-1, 72 h, read-out: IC50 proliferation SK-CO-1 (Mut).
Where [10] appears, read: SK-CO-1, Table 11, colon, read-out: IC50 (μM) SK-CO-1 (Mut).
Setting [11] is: 72 h, read-out: IC50 proliferation Hec1A (Mut).
Where [12] appears, read: Table 11, endometrial, read-out: IC50 (μM) Hec1A (Mut).
Where [13] appears, read: 72 h, read-out: IC50 proliferation Hec1B (Mut).
Where [14] appears, read: Table 11, endometrial, read-out: IC50 (μM) Hec1B (Mut).
Setting [15] is: Caco-2, 72 h, read-out: IC50 proliferation CaCO-2 (WT).
The mark [16] stands for this setting: Caco-2, Table 11, colon, read-out: IC50 (μM) Caco-2 (WT).
The mark [17] stands for this setting: NCI-H1299, 72 h, read-out: IC50 proliferation NCI-H1299 (WT; N Mut in Table 6).
The mark [18] stands for this setting: NCI-H1299, Table 11, lung, read-out: IC50 (μM) NCI H1299 (WT).
Setting [19] is: MPANC96, 72 h, read-out: IC50 proliferation MPanc96 (Mut).
The mark [20] stands for this setting: MPANC96, Table 11, pancreatic, read-out: IC50 (μM) MPanc96 (Mut).
Setting [21] is: 72 h, read-out: IC50 proliferation MOH (Mut).
Setting [22] is: Table 11, pancreatic, read-out: IC50 (μM) MOH (Mut).
[23] abbreviates: NCI-H23, 72 h, read-out: IC50 proliferation NCI-H23 (Mut).
The mark [24] stands for this setting: NCI-H23, Table 11, lung, read-out: IC50 (μM) NCI H23 (Mut).
Where [25] appears, read: 48 h treatment, read-out: IC50 (μM), KRASG12V mislocalization.

The values below come from US12043602B2, “Fendiline derivatives” (The Board of Regents of the University of Texas System, priority 2019, dated 2024).

Molecules are shown by their SMILES. Where “and” joins values, the source holds several entries; their conditions need not be identical. Equal entries are not always repeated. Where two headings read alike, the source gives them in different places.

Consider `CC(NCCC(c1ccccc1)c1ccccc1)c1ccccc1` (stereo not drawn) [Fendiline], for which the IC50 in [1] (setting [9]) was found to be 7.77 µM; in experiment [1] (setting [10]) it was 7.8 µM; in experiment [2] (setting [11]) it was 9.48 µM; in [2] (setting [12]), 9.48 µM; in experiment [3] (setting [13]), 9.8 µM; in experiment [3] (setting [14]), 9.8 µM. The IC50 in experiment [4] (setting [15]) was 15.4 µM; in experiment [4] (setting [16]), 14.5 µM; in experiment [5] (setting [17]), 24.2 µM; in [5] (setting [18]), 24.3 ± 2.1 µM; in [6] (setting [19]), 10.8 µM; in experiment [6] (setting [20]) it was 10.8 µM. Further, the IC50 in [7] (setting [21]) was found to be 11.1 µM; in experiment [7] (setting [22]) it was 11.1 µM; in [8] (setting [23]), 11.4 µM; in experiment [8] (setting [24]) it was 11.4 ± 1 µM. For the same compound, the “pERK levels in tumors” value in the experiment with pERK is “no significant effect”.

In the case of `COc1ccc([C@@H](C)N(CC=C(c2ccccc2)c2ccccc2)CCN2CCN(C)CC2)cc1` [NY0244, (R)-N-(1-(4-methoxyphenyl)ethyl)-N-(2-(4-methylpiperazin-1-yl)ethyl)-3,3-diphenylprop-2-en-1-amine], the IC50 in experiment [1] (setting [9]) amounted to 3.28 µM; in experiment [1] (setting [10]) it was 3.3 µM; in [2] (setting [11]), 2.6 µM; in experiment [2] (setting [12]), 2.6 µM; in [3] (setting [13]) it was 3.28 µM; in experiment [3] (setting [14]), 3.3 µM. In addition, the IC50 in experiment [4] (setting [15]) was 5.1 µM; in experiment [4] (setting [16]) it was 5.1 µM; in experiment [5] (setting [17]) it was 8.24 µM; in [5] (setting [18]), 8.2 µM; in experiment [6] (setting [19]), 4.22 µM; in experiment [6] (setting [20]), 4.2 µM. In addition, the IC50 on mGFP-K-RASG12V (setting [25]) was 0.1 µM; in [7] (setting [21]) it was 3.67 µM; in [7] (setting [22]) it was 3.7 µM; in experiment [8] (setting [23]), 3.81 µM; in experiment [8] (setting [24]), 3.8 µM. Further, the Emax at mGFP-K-RASG12V (48 h) was 0.75 ± 0.01; at mGFP-K-RASG12V (48 h, listed as 12f), 0.75 and 0.75 ± 0.01. Moreover, the “fold increase in KRAS mislocalization potency” value on mGFP-K-RASG12V (versus hit 7) is 5 fold.

Consider `COc1ccc([C@@H](C)N(CC=C(c2ccccc2)c2ccccc2)CCN2CCCC2)cc1` [NY0331, (R)-N-(1-(4-methoxyphenyl)ethyl)-3,3-diphenyl-N-(2-(pyrrolidin-1-yl)ethyl)prop-2-en-1-amine], for which the IC50 in [6] (setting [19]) came to 3.81 µM; in [6] (setting [20]), 3.8 µM; at mGFP-K-RASG12V (setting [25]), 0.3 µM; in experiment [7] (setting [21]), 3.55 µM; in experiment [7] (setting [22]), 4 µM. This compound also came in with an Emax at mGFP-K-RASG12V (48 h) of 0.85 ± 0.04. For the same compound, at mGFP-K-RASG12V (versus 12f (NY0244)), the “fold potency loss / decreased potency” value was 3 fold. Also, the “pERK levels in tumors” value in the experiment with pERK is given as “reduced”.

For `COc1ccc([C@@H](C)N(CC=C(c2ccccc2)c2ccccc2)CCCN2CCN(C)CC2)cc1` [NY0335, (R)-N-(1-(4-methoxyphenyl)ethyl)-N-(3-(4-methylpiperazin-1-yl)propyl)-3,3-diphenylprop-2-en-1-amine], the IC50 in [1] (setting [9]) worked out at 3.52 µM; in experiment [1] (setting [10]) it was 3.5 µM; in experiment [2] (setting [11]) it was 2.34 µM; in [2] (setting [12]) it was 2.3 µM; in experiment [3] (setting [13]), 3.89 µM; in experiment [3] (setting [14]), 3.9 µM. The IC50 in experiment [4] (setting [15]) was determined as 4.43 µM; in [4] (setting [16]) it was 4.4 µM; in [5] (setting [17]), 8.12 µM; in [5] (setting [18]), 8.2 ± 1 µM; in [6] (setting [19]), 4.18 µM; in experiment [6] (setting [20]) it was 4.2 µM. In addition, the IC50 worked out at 0.02 µM at mGFP-K-RASG12V (48 h, read-out: KRAS mislocalization potency); 0.02 µM on mGFP-K-RASG12V (setting [25]); 3.77 µM in experiment [7] (setting [21]); 3.8 µM in experiment [7] (setting [22]); 4.14 µM in experiment [8] (setting [23]); 4.1 µM in experiment [8] (setting [24]). The Emax at mGFP-K-RASG12V (48 h, listed as 22) was 0.81; on mGFP-K-RASG12V (48 h, listed as NY335) it was 0.81 ± 0.01. The “pERK levels in tumors” value in the experiment with pERK was “reduced”.
